Results from patent US20230066946A1, “1,5-DIPHENYLPYRAZOLYL-3-OXYALKYL ACIDS AND 1-PHENYL-5-THIENYLPYRAZOLYL-3-OXYALKYL ACIDS AND THE USE THEREOF FOR CONTROL OF UNWANTED PLANT GROWTH” (Bayer Aktiengesellschaft, priority 2019, published 2023).

Tests used:
AVEFA [1] = assay: Pre-emergence herbicidal action against AVEFA; assay type: in vivo, Avena fatua; details: scored visually after about 3 weeks vs untreated controls, 100% = plants have died, 0% = like control plants
Excerpt: (§1) Seeds of mono- and dicotyledonous weed plants are placed in plastic pots in sandy loam soil (doubly sown with one species each of mono- or dicotyledonous weed plants per pot) and covered with soil. The compounds of the invention, formulated in the form of wettable powders (WP) or as emulsion concentrates (EC), are then applied onto the surface of the covering soil as aqueous suspension or emulsion with addition of 0.5% additive at a water application rate equivalent to 600 litres per hectare. After the treatment, the pots are placed in a greenhouse and kept under good growth conditions for the trial plants. After about 3 weeks, the effect of the preparations is scored visually in comparison with untreated controls as percentages. For example, 100% activity=the plants have died, 0% activity=like control plants. [table] Tables 4.1-4.15 below show the effects of selected compounds of the general formula (I) according to Tables 1 to 3 on various harmful plants at an application rate corresponding to 1280 or 320 g/ha, which have been obtained by the aforementioned experimental method.

VIOTR [2] = assay: Pre-emergence herbicidal action against VIOTR; assay type: in vivo, Viola tricolor; details: 1280 g/ha, scored visually after about 3 weeks vs untreated controls
Procedure, shortened: (§2)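 Pre-emergence, sandy loam, pots doubly sown. WP/EC formulations + 0.5% additive, 600 L/ha water, sprayed on soil surface; 1280 or 320 g/ha. Greenhouse ~3 wk; visual % effect vs untreated.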

PHBPU = assay: Post-emergence herbicidal action against PHBPU; assay type: in vivo, Pharbitis purpurea; details: 320 g/ha, visual rating about 3 weeks after treatment
Procedure, shortened: (§3)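 Greenhouse, sandy loam, one-leaf stage; compound as WP/EC at 1280 or 320 g/ha plus 0.5% additive (600 L/ha). Visual % activity at ~3 weeks relative to untreated plants.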

MATIN [3] = assay: Pre-emergence herbicidal action against MATIN; assay type: in vivo, Matricaria inodora; details: 1280 g/ha, scored visually after about 3 weeks vs untreated controls
Procedure, shortened: as §2

MATIN [4] = assay: Post-emergence herbicidal action against MATIN; assay type: in vivo, Matricaria inodora; details: visual rating about 3 weeks after treatment
Procedure, shortened: as §3

STEME [5] = assay: Post-emergence herbicidal action against STEME; assay type: in vivo, Stellaria media; details: visual rating about 3 weeks after treatment
Procedure, shortened: as §3

AMARE [6] = assay: Pre-emergence herbicidal action against AMARE; assay type: in vivo, Amaranthus retroflexus; details: scored visually after about 3 weeks vs untreated controls; for Pre-emergence action at 320 g/ha against AMARE in %: 100% = plants have died, 0% = like control plants; for Pre-emergence action against AMARE in %: 1280 g/ha
Procedure, shortened: as §2

CYPES = assay: Pre-emergence herbicidal action against CYPES; assay type: in vivo, Cyperus esculentus; details: scored visually after about 3 weeks vs untreated controls, 100% = plants have died, 0% = like control plants
Procedure, shortened: as §2

POLCO [7] = assay: Post-emergence herbicidal action against POLCO; assay type: in vivo, Polygonum convolvulus; details: 320 g/ha, visual rating about 3 weeks after treatment
Procedure, shortened: as §3

AMARE [8] = assay: Post-emergence herbicidal action against AMARE; assay type: in vivo, Amaranthus retroflexus; details: visual rating about 3 weeks after treatment
Procedure, shortened: as §3

ALOMY [9] = assay: Pre-emergence herbicidal action against ALOMY; assay type: in vivo, Alopecurus myosuroides; details: scored visually after about 3 weeks vs untreated controls, 100% = plants have died, 0% = like control plants
Procedure, shortened: as §2

ALOMY [10] = assay: Post-emergence herbicidal action against ALOMY; assay type: in vivo, Alopecurus myosuroides; details: 1280 g/ha, post-emergence at one-leaf stage, rated visually after about 3 weeks vs untreated controls
Procedure, shortened: as §3

STEME [11] = assay: Pre-emergence herbicidal action against STEME; assay type: in vivo, Stellaria media; details: 1280 g/ha, scored visually after about 3 weeks vs untreated controls
Procedure, shortened: as §2

SETVI [12] = assay: Post-emergence herbicidal action against SETVI; assay type: in vivo, Setaria viridis; details: 1280 g/ha, post-emergence at one-leaf stage, rated visually after about 3 weeks vs untreated controls
Procedure, shortened: as §3

SETVI [13] = assay: Pre-emergence herbicidal action against SETVI; assay type: in vivo, Setaria viridis; details: 1280 g/ha, scored visually after about 3 weeks vs untreated controls
Procedure, shortened: as §2

POLCO [14] = assay: Pre-emergence herbicidal action against POLCO; assay type: in vivo, Polygonum convolvulus; details: 320 g/ha, scored visually after about 3 weeks vs untreated controls
Procedure, shortened: as §2

harmful plants = assay: Pre-emergence herbicidal action, summary of Tables 4.1-4.15; assay type: in vivo; details: result in words
Procedure, shortened: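 Percent herbicidal action (100% = plants dead, 0% = like controls) was assessed visually about 3 weeks after treatment. Application rates of 1280 or 320 g/ha were applied to the covering soil of freshly sown sandy-loam pots, in 600 l/ha water with 0.5% additive, before emergence.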

HORMU [15] = assay: Pre-emergence herbicidal action against HORMU; assay type: in vivo, Hordeum murinum; details: 320 g/ha, scored visually after about 3 weeks vs untreated controls
Excerpt: as §1

AVEFA [16] = assay: Post-emergence herbicidal action against AVEFA; assay type: in vivo, Avena fatua; details: 1280 g/ha, post-emergence at one-leaf stage, rated visually after about 3 weeks vs untreated controls
Procedure: (§4) [table] Seeds of mono- and dicotyledonous weed plants are placed in plastic pots in sandy loam soil (twin sowing with one species each of mono- or dicotyledonous weed plants per pot), covered with soil and cultivated in a greenhouse under controlled growth conditions. 2 to 3 weeks after sowing, the test plants are treated at the one-leaf stage. The compounds of the invention, formulated in the form of wettable powders (WP) or as emulsion concentrates (EC), are applied to the green parts of the plants as aqueous suspension or emulsion with addition of 0.5% additive at a water application rate equivalent to 600 litres per hectare. After the test plants have been kept in the greenhouse under optimum growth conditions for about 3 weeks, the activity of the preparations is rated visually in comparison to untreated controls. For example, 100% activity=the plants have died, 0% activity=like control plants. Tables 5.1-5.16 below show the effects of selected compounds of the general formula (I) according to Tables 1 to 3 on various harmful plants at an application rate corresponding to 1280 or 320 g/ha, which have been obtained by the aforementioned experimental method.

VERPE = assay: Post-emergence herbicidal action against VERPE; assay type: in vivo, Veronica persica; details: 320 g/ha, visual rating about 3 weeks after treatment
Procedure, shortened: as §3

LOLRI = assay: Post-emergence herbicidal action against LOLRI; assay type: in vivo, Lolium rigidum; details: 1280 g/ha, post-emergence at one-leaf stage, rated visually after about 3 weeks vs untreated controls
Procedure: as §4

HORMU [17] = assay: Post-emergence herbicidal action against HORMU; assay type: in vivo, Hordeum murinum; details: 320 g/ha, visual rating about 3 weeks after treatment
Procedure, shortened: as §3

ECHCG [18] = assay: Post-emergence herbicidal action against ECHCG; assay type: in vivo, Echinochloa crus-galli; details: 1280 g/ha, post-emergence at one-leaf stage, rated visually after about 3 weeks vs untreated controls
Procedure, shortened: as §3

ECHCG [19] = assay: Pre-emergence herbicidal action against ECHCG; assay type: in vivo, Echinochloa crus-galli; details: scored visually after about 3 weeks vs untreated controls, 100% = plants have died, 0% = like control plants
Procedure, shortened: as §2

VIOTR [20] = assay: Post-emergence herbicidal action against VIOTR; assay type: in vivo, Viola tricolor; details: 320 g/ha, visual rating about 3 weeks after treatment
Procedure, shortened: as §3

CCOC(=O)COc1nn(-c2ccccc2)c(-c2ccc(F)cc2)c1Br [I-056]
good herbicidal efficacy: herbicidal efficacy against harmful plants in the case of pre-emergence treatment (harmful plants)
80%: Pre-emergence action at 1280 g/ha against AVEFA in % (AVEFA [1]) | Pre-emergence action against VIOTR in % (VIOTR [2]) | Post-emergence action against PHBPU in % (PHBPU) | Post-emergence action against MATIN in % (MATIN [4]; 320 g/ha) | Post-emergence action against MATIN in % (MATIN [4]; 1280 g/ha) | Pre-emergence action at 320 g/ha against AMARE in % (AMARE [6]) | Post-emergence action against POLCO in % (POLCO [7]) | Post-emergence action against AMARE in % (AMARE [8]; 320 g/ha) | Post-emergence action against AMARE in % (AMARE [8]; 1280 g/ha) | Post-emergence action against SETVI in % (SETVI [12]) | Pre-emergence action against POLCO in % (POLCO [14]) | Pre-emergence action against HORMU in % (HORMU [15])
90%: Pre-emergence action against MATIN in % (MATIN [3]) | Post-emergence action against STEME in % (STEME [5]; 1280 g/ha) | Pre-emergence action at 1280 g/ha against CYPES in % (CYPES) | Pre-emergence action at 1280 g/ha against ALOMY in % (ALOMY [9]) | Post-emergence action against ALOMY in % (ALOMY [10]) | Post-emergence action against AVEFA in % (AVEFA [16]) | Post-emergence action against VERPE in % (VERPE)
100%: Pre-emergence action against AMARE in % (AMARE [6]) | Pre-emergence action against STEME in % (STEME [11]) | Pre-emergence action against SETVI in % (SETVI [13])

COC(=O)C(C)Oc1nn(-c2cccc(F)c2)c(-c2cccc(F)c2)c1C#N (stereo not drawn) [I-067]
90%: Post-emergence action against LOLRI in % (LOLRI) | Pre-emergence action against MATIN in % (MATIN [3]) | Post-emergence action against STEME in % (STEME [5]; 1280 g/ha) | Post-emergence action against ECHCG in % (ECHCG [18]) | Pre-emergence action at 320 g/ha against AMARE in % (AMARE [6]) | Pre-emergence action at 1280 g/ha against CYPES in % (CYPES) | Pre-emergence action at 1280 g/ha against ALOMY in % (ALOMY [9]) | Pre-emergence action against STEME in % (STEME [11])
80%: Pre-emergence action at 1280 g/ha against AVEFA in % (AVEFA [1]) | Post-emergence action against MATIN in % (MATIN [4]; 1280 g/ha) | Post-emergence action against HORMU in % (HORMU [17]) | Post-emergence action against STEME in % (STEME [5]; 320 g/ha) | Pre-emergence action at 1280 g/ha against ECHCG in % (ECHCG [19]) | Post-emergence action against VIOTR in % (VIOTR [20])
good herbicidal efficacy: herbicidal efficacy against harmful plants in the case of pre-emergence treatment (harmful plants)
100%: Pre-emergence action against VIOTR in % (VIOTR [2]) | Pre-emergence action against AMARE in % (AMARE [6]) | Post-emergence action against ALOMY in % (ALOMY [10]) | Pre-emergence action against SETVI in % (SETVI [13])
